Tests used:
[1] = UV–Vis titration of HL-CH3 with Mn(ClO4)2, binding constant; conditions: Mn(II); 0.1 mM ligand, 5% v/v MeOH/BBS 50 mM, pH 7.4
Procedure: (§1) To evaluate the selectivity of these ligands towards copper, the same titrations were performed with different metal salts: Fe(ClO4)2, Mn(ClO4)2, and Zn(ClO4)2, monitoring the methyl-substituted ligand (Figures S39–S41). These metal ions were chosen because they are also divalent and common in biological matrixes.
(§2) For the determination of the binding constant between metals and ligands, a solution of the latter was titrated with 0.2 eq of metal for each addition. The titrating solutions were 10 mM and 100 μM for Cu(ClO4)2 versus 0.1 mM and 1 μM for the ligands in 5% v/v MeOH/BBS (50 mM, pH 7.4), respectively. […] The absorbance variation was monitored from 200 nm to 800 nm at 25 °C. […]
(§3) UV-vis spectra of ligands and complexes were recorded in a quartz cuvette, with 1 cm of optical path. […]
(§4) The titrating solutions were 10 mM and 100 μM for Cu(ClO4)2 versus 0.1 mM and 1 μM for the ligands in 5% v/v MeOH/BBS (50 mM, pH 7.4), respectively. […] The absorbance variation was monitored from 200 nm to 800 nm with a Varian Cary 50 instrument, thermostated at 25 °C.
(§5) The binding constants were then determined by nonlinear regression analysis of the plot “ΔAbs/b vs Cu(II) concentration” (Equation 7 ), according to K. Connors, The Measurement of Molecular Complex Stability, Madison, Wisconsin, Wiley, 1987[5]. […]
(§6) ΔA: absorbance at a certain wavelength. […]

[2] = UV–Vis titration of HL-CH3 with Fe(ClO4)2, binding constant; conditions: Fe(II); 0.1 mM ligand, 5% v/v MeOH/BBS 50 mM, pH 7.4
Procedure: as §1, §2, §3, §4, §5, §6

[3] = Potentiometric titration of the free ligand (protonation constants); format: physicochemical
Procedure: As far as the ligand behavior in aqueous solutions is concerned, the speciation curves were obtained from the titration of an L-CH3 solution (0.1 mM in DMSO 5% (v/v)/H2O (HCl/KCl); initial pH = 2.7) by stepwise addition of NaOH 0.1 M. The distribution curves and the acid association constants were then calculated (Figure 1 and Table 1).
At low pH, L-CH3 has seven protic groups that can be deprotonated upon pH increase: besides the phenolic OH, two tertiary amines and four pyridines. From the titration, six logKa could be successfully obtained. The highest one, logKa = 9.75, is related to the phenolic group. The next constants are ascribed to the nitrogens of the tertiary amines and of the Pyr groups, although they are difficult to unambiguously correlate with a specific functional group. […] The potentiometric titration was carried out till pH 9.5 to avoid the precipitation of the ligand in the basic environment.
Potentiometric measurements were carried out using the Metrohm pH-meter system (Herisau, Switzerland) with a Metrohm semi-micro combination electrode at 25 °C, calibrated in a hydrogen ion concentration using HCl. The ligands were dissolved in DMSO (5% v/v/H2O (HCl/KCl)) in order to obtain a concentration of 1 mM. The titrant (KOH 0.1M) was added with a micrometric syringe at 298 K in the pH range of 2.5–11.5 in an argon atmosphere. The stability constants and stoichiometry of the complexes were calculated using the titration curves and the SUPERQUAD and HYPERQUAD [47, 48].

[4] = overall protonation constant, DMSO 5% (v/v)/H2O (HCl/KCl), 25 °C

Structure (SMILES): Cc1cc(CN(Cc2ccccn2)Cc2ccccn2)c(O)c(CN(Cc2ccccn2)Cc2ccccn2)c1 [HL-CH3, 2,6-bis[(bis(2-pyridylmethyl)amino)methyl]-4-methylphenol]
- Kbind [1]: 6.12 × 10^7 M^−2
- log(Kbind) [1]: 7.78
- Kbind [2]: 1.09 × 10^8 M^−2
- log(Kbind) [2]: 8.03
- logβi, L^− + 2H^+ ⇌ [H2L]^+ [3, 4]: 16.57 ± 0.01
- logβi, L^− + 3H^+ ⇌ [H3L]^2+ [3, 4]: 21.56 ± 0.01
- logβi, L^− + 4H^+ ⇌ [H4L]^3+ [3, 4]: 25.27 ± 0.01
- logβi, L^− + 5H^+ ⇌ [H5L]^4+ [3, 4]: 27.83 ± 0.02
- logβi, L^− + 6H^+ ⇌ [H6L]^5+ [3, 4]: 29.60 ± 0.11
- logβi, L^− + H^+ ⇌ HL [3, 4]: 9.75 ± 0.01
- logKa, HL + H^+ ⇌ [H2L]^+ ([3]; stepwise constant): 6.82
- logKa, [H2L]^+ + H^+ ⇌ [H3L]^2+ ([3]; stepwise constant): 4.99
- logKa, [H3L]^2+ + H^+ ⇌ [H4L]^3+ ([3]; stepwise constant): 3.71
- logKa, [H4L]^3+ + H^+ ⇌ [H5L]^4+ ([3]; stepwise constant): 2.56
- logKa, [H5L]^4+ + H^+ ⇌ [H6L]^5+ ([3]; stepwise constant): 1.77
- logKa, L + H^+ ⇌ HL ([3]; stepwise constant, phenolic group): 9.75
